The conditions of data set [1]: parenteral administration; cited from earlier work.
For data set [2] the following is noted: saturated aqueous solution at 20° C.; cited from earlier work.
Data set [3] in a line: toxicity / tolerability on parenteral use. The following applies: anion is a naturally occurring mammalian metabolite.
Data set [4] in a line: stability of the powder / shelf life. The format is physicochemical.
The nature of another data set: pH of aqueous solution. The format is physicochemical.

We go through 3 molecules from patent US20040106678A1, “Compositions for the parenteral administration of calcium and magnesium” (priority 2002, published 2004).

On to `[Ca+2].[Cl-].[Cl-]` [Calcium chloride], for which the “venous toxicity” value in data set [1] is “appreciably toxic to veins”.
Consider “D-gluconic acid calcium salt [Calcium gluconate]”, for which the “pH of saturated solution” value in data set [2] is 6-7.
“calcium 3-hydroxy-3-methylbutyrate [CaHMB]”: in data set [3], the “toxicity” value was “non-toxic”. The “powder stability / shelf life” value in data set [4] is reported as “stable powders with long shelf lives”. The “pH of saturated aqueous solution” value in “pH of aqueous solution” (27% by weight saturated aqueous solution at 20° C.) is given as “neutral or slightly alkaline”. Also, in “pH of aqueous solution” (if pure, dissolved in distilled water), the “pH of aqueous solution in distilled water” value is listed as “nearly neutral or slightly alkaline”.
